Test results from PubChem BioAssay (NCI).
Values joined by “and” are separate entries in the source; they are usually repeats but may differ in a detail not shown here. Equal values may be shown once.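 Method: 48-hour compound exposure of cells in 96-well plates, five concentrations, linear interpolation of endpoints. At the GI50, growth is halved. TGI is the concentration that stops growth completely.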

Tests used:
Assay in all cases: growth of human tumour cells (NCI), 48 h
HCT-15 colon = tested on: HCT-15 colon
K-562 leukemia = tested on: K-562 leukemia
MDA-MB-435 = tested on: MDA-MB-435
TK-10 renal = tested on: TK-10 renal
PC-3 prostate = tested on: PC-3 prostate
SW-620 colon = tested on: SW-620 colon
MDA-MB-231 breast = tested on: MDA-MB-231 breast
SK-OV-3 ovarian = tested on: SK-OV-3 ovarian
EKVX NSCLC = tested on: EKVX NSCLC
DU-145 prostate = tested on: DU-145 prostate

Row | Compound | GI50 (HCT-15 colon) | TGI (HCT-15 colon) | GI50 (K-562 leukemia) | TGI (K-562 leukemia) | GI50 (MDA-MB-435) | TGI (MDA-MB-435) | GI50 (TK-10 renal) | TGI (TK-10 renal) | GI50 (PC-3 prostate) | TGI (PC-3 prostate) | GI50 (SW-620 colon) | TGI (SW-620 colon) | GI50 (MDA-MB-231 breast) | TGI (MDA-MB-231 breast) | GI50 (SK-OV-3 ovarian) | TGI (SK-OV-3 ovarian) | GI50 (EKVX NSCLC) | TGI (EKVX NSCLC) | GI50 (DU-145 prostate) | TGI (DU-145 prostate)
1 | CCOC(=O)Oc1c(OC)cc(C(=O)c2ccc(OC)c(OC(=O)CCl)c2OC)cc1OC | 0.415 µM | > 100 µM | 0.457 µM | > 100 µM | 0.239 µM | 0.773 µM | > 100 µM | > 100 µM | 2.83 µM | > 100 µM | 0.455 µM | > 100 µM | 1.9 µM | > 100 µM | 2.58 µM | > 100 µM | 3.63 µM | > 100 µM | 1.83 µM | > 100 µM
2 | O=c1oc2ccccc2cc1-c1ccc([N+](=O)[O-])cc1 | – | > 100 µM | – | > 100 µM | – | > 100 µM | – | > 100 µM | – | > 100 µM | – | > 100 µM | – | > 100 µM | – | > 100 µM | – | > 100 µM | – | > 100 µM
3 | CCNCCNc1cc(-c2ccc(Cl)cc2)c(C#N)c2nc3ccccc3n12 | 1.25 µM | 2.64 µM | 1.29 µM | 3.06 µM | 1.58 µM | 2.95 µM | 2.04 µM | 3.62 µM | 1.86 µM | 3.39 µM | 1.52 µM | 3.14 µM | 1.92 µM | 3.58 µM | 1.85 µM | 3.47 µM | 1.6 µM | 3.31 µM | 1.71 µM | 3.09 µM
4 | C[C@@H](Oc1cc(-c2cnn(C3CCNCC3)c2)cnc1N)c1c(Cl)ccc(F)c1Cl | 2.4 µM | > 10 µM | 0.267 µM | 2.3 µM | 0.715 µM | > 10 µM | 2.76 µM | > 10 µM | 1.35 µM | > 10 µM | 0.435 µM | > 10 µM | 1.17 µM | 6.5 µM | 5.85 µM | > 10 µM | 8.07 µM | > 10 µM | 2.74 µM | > 10 µM
5 | COc1c(O)cc2oc3cc(O)c(CC=C(C)C)c(O)c3c(=O)c2c1C/C=C(\C)CCC=C(C)C | 5.69 µM | 11.7 µM | 7.29 µM | 16.6 µM | 5.77 µM | 10.9 µM | 8.15 µM | 15.5 µM | 5.55 µM | 11.2 µM | 5.8 µM | 10.4 µM | 5.61 µM | 11.2 µM | 5.86 µM | 10.4 µM | 4.89 µM | 9.75 µM | 5.98 µM | 10.5 µM
6 | O=C1CC2(CCCc3sccc32)C(=O)N1 (centres undefined) | – | > 100 µM | – | > 100 µM | – | > 100 µM | – | > 100 µM | – | > 100 µM | – | > 100 µM | – | > 100 µM | – | > 100 µM | – | > 100 µM | – | > 100 µM
7 | CC1/C=C/C=C/CC/C=C/C=C/C=C/C=C/C(OC2OC(C)C(O)C(N)C2O)CC2OC(CC(O)C(O)CCC(O)CC(O)CC(O)CC(=O)OC(C)C(C)C1O)CC(O)C2C(=O)O (centres undefined) | 43.8 mg/L | 82.2 µM and 150 µg/mL | 74.9 mg/L | > 100 µM and 150 µg/mL | 28.1 mg/L | 31.9 µM and 50.1 µg/mL | 28.3 mg/L | 32.5 µM and 53.6 µg/mL | 31.2 mg/L | 36.4 µM and 75.7 µg/mL | 25.4 mg/L | 42.2 µM and 46 µg/mL | 29.4 mg/L | 39.4 µM and 69.2 µg/mL | 47.1 mg/L | 44.4 µM and 136 µg/mL | – | 30.9 µM | 32.3 mg/L | 32.4 µM and 73.5 µg/mL
8 | COc1ccc2c(CN3CCC(CO)CC3)cc3cc4c(cc3c2c1)OCO4 | 0.17 µM | 3.49 µM | 0.15 µM | 3.07 µM | 0.275 µM | 1.41 µM | 0.407 µM | 8.65 µM | 0.236 µM | 1.02 µM | 0.141 µM | 11 µM | 1.35 µM | 12.3 µM | 0.326 µM | 3.83 µM | 0.415 µM | 6.29 µM | 0.25 µM | 12.6 µM
9 | O=C(Nc1cccc(NS(=O)(=O)c2ccc(F)cc2)c1)c1ccc(-c2ccccc2)cc1 | 2.86 µM | 18.3 µM | 2.91 µM | 24.7 µM | 3.26 µM | 13.7 µM | 3.77 µM | 36.5 µM | 2.81 µM | 32.6 µM | 4.04 µM | 35.4 µM | 3.61 µM | 18 µM | 4.78 µM | 38.5 µM | 2.98 µM | 65.3 µM | 3.96 µM | > 100 µM
10 | O=C1NC(=O)[C@@H](c2cn3c4c(cccc24)CCC3)[C@@H]1c1c[nH]c2ccccc12 | 0.338 µM and 0.505 µM | > 10 µM and 14.9 µM | 0.182 µM and 0.312 µM | > 10 µM and 18.6 µM | 0.146 µM and 0.125 µM | 0.431 µM and 0.367 µM | 0.57 µM and 4.7 µM | > 10 µM and 35.5 µM | 0.411 µM and 0.521 µM | > 10 µM and 37.4 µM | 0.391 µM and 0.354 µM | > 10 µM and 15.2 µM | 0.632 µM and 1.19 µM | 8.12 µM and 9.86 µM | 0.48 µM and 0.372 µM | > 10 µM and 12.2 µM | 0.482 µM and 0.991 µM | > 10 µM and 29.3 µM | 0.417 µM and 0.442 µM | > 10 µM and 6.81 µM
